# Entries after “also recorded” stand apart in the source; their conditions may differ. Like-named read-outs stand apart in the source and are kept apart here.
# Assays:
# PGP 9.5 = PGP 9.5 immunocytochemistry of CYP-CIPN rat epidermis (nerve terminals, edema); assay type: in vivo; conditions: fluorescent images, oral 8-AG
# Method: (§1) Animals. This study employed female Harlan Sprague Dawley (HSD) rats (3-4 mo; Envigo, Indianapolis, IN) and were divided into the following groups: 1) Control, 2) Cyclophosphamide (CYP, 75 mg/kg i.p. in saline vehicle; administered on days 0, 3 and 6); 3) 8-aminoguanine (8-AG; 5 mg/kg/day in drinking water; beginning 2 weeks prior to CYP and continuing until sacrifice (day 8)). The dose of 8-AG is based on our preliminary and published experiments. […] The investigation conforms to the Guide for the Care and Use of Laboratory Animals published by the US National Institutes of Health (NIH Publication No. 85-23, revised 1996). In addition, all tissues (dorsal root ganglion, spinal cord, peripheral nerves and hindpaw epidermis) were removed from isoflurane anesthetized rats and the tissue was used for various experimental approaches as described below. At the end of tissue removal, animals were sacrificed by thoracotomy.
# Immunocytochemistry: A portion of tissues (a 3 mm biopsy from the rat hindpaw food pad or epidermis) is placed overnight in fixative (4% PFA) and cryoprotected (30% sucrose-phosphate buffered saline). Fluorescence immunocytochemistry was used to process cross-sections (20 μm) using antibodies (validated in rat tissue) against PGP 9.5 (Invitrogen PA5-29012, neuron specific protein; 1:500 dilution). […]
# PNPase = PNPase (Rattus norvegicus, UniProt P85973); conditions: single bolus 5 mg/kg
# Chain of PNPase (P85973 whole entry): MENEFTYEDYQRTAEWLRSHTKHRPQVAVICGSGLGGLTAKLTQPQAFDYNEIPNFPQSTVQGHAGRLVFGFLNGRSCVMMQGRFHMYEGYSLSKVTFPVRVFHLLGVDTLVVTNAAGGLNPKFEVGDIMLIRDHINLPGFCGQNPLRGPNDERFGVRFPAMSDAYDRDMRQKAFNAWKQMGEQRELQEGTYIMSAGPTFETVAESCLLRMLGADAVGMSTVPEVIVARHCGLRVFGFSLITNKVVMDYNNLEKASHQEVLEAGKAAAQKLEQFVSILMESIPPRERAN
# Method: (§3) Rats were anesthetized with urethane (Sigma-Aldrich, St. Louis, MO) at 1.2 g/kg. A continuous infusion of 0.9% sterile saline at 25 ul/min was established via a catheter inserted into the jugular vein. A second catheter to the carotid artery was established in order to collect blood samples (200 μl) which were drawn into a 1 ml syringe prefilled with 50 U heparin. Blood samples were centrifuged at 1300 g for 10 minutes and supernatant (plasma) was then quickly frozen on dry ice and stored at −80° C. until assay. Urine samples were collected by a urethral catheter, centrifuged at 416 g for 10 minutes to remove sediment, and stored as above. Baseline blood samples and urine samples were collected followed by a single bolus of 8-aminoguanine (8-AG, 5 mg/kg) administered through the jugular catheter. Blood samples were collected after 15, 30, 60, 120 and 240 minutes. Urine samples were collected at 1, 2, 4 and 6 hours.
# Purines in urine were measured by mass spectrometry using multiple reaction monitoring. Blood samples were diluted 1 to 30 with water, and heavy isotope internal standards were added to each sample. Purines were separated by reversed-phase ultra-performance liquid chromatography (Waters UPLC BEH C18 column, 1.7 μm beads; 2.1×150 mm; Milford, MA) and quantified by multiple reaction monitoring using a triple quadrupole mass spectrometer (TSQ Quantum-Ultra; ThermoFisher Scientific, San Jose, CA) with a heated electrospray ionization source. The mobile phase was a linear gradient flow rate (300 uL/min) of 1% acetic acid in water (pH, 3; mobile phase A) and 100% methanol (mobile phase B), and was delivered with a Waters Acquity ultra-performance liquid chromatographic system. The gradient (A/B) settings were: from 0 to 2 minutes, 99.6%/0.4%; from 2 to 3 minutes, to 98.0%/2.0%; from 3 to 4 minutes, to 85.0%/15.0%; from 4 to 6.5 minutes, to 99.6%/0.4%. The instrument parameters were: sample tray temperature, 10° C.; column temperature, 50° C.; ion spray voltage, 4.0 kilovolts; ion transfer tube temperature, 350° C.; source vaporization temperature, 320° C.; Q2 CID gas, argon at 1.5 mTorr; sheath gas, nitrogen at 60 psi; auxillary gas, nitrogen at 35 psi; Q1/Q3 width, 0.7/0.7 units full-width half-maximum; scan width, 0.6 units; scan time, 0.01 seconds. The following transitions (multiple reaction monitoring) were obtained: guanosine (284→152; RT=2.94 min); ^13C10, ^15N5-guanosine (299→162, RT=2.94 min); guanine (152→135; RT=1.48 min); ^13C2, ^15N-guanine (155→138, RT=1.48 min); hypoxanthine (137→119 m/z, RT=1.86 min); ^13C5-hypoxanthine (142→124 m/z, RT=1.86 min); aminoguanine (167→150 m/z, RT=1.50 min); ^13C2^15N-aminoguanine (170→153 m/z, RT=1.50 min).
# mitofusin 2 (MFN2) = test: MFN2 expression in CYP-CIPN rat hindpaw epidermis, Western immunoblotting; assay type: in vivo; conditions: 8-AG 5 mg/kg/day in drinking water
# Method: as §1, with “In addition, all tissues (dorsal root ganglion, spinal cord, peripheral nerves and hindpaw epidermis) were removed from isoflurane anesthetized rats and the tissue was used for various experimental approaches as described below. At the end of tissue removal, animals were sacrificed by thoracotomy.” left out
# (§2) Western immunoblotting: Following the testing paradigms, rats were deeply anesthetized and tissues (e.g., epidermis, peripheral sciatic nerves, spinal cord segments (L3-L5) and dorsal root ganglia (L3-L5) were removed, and a portion of each preparation was homogenized using Lysing Matrix D in a FASTPREP® 24 instrument (MP Biomedicals, Solon, OH) in HBSS [5 mM KCl, 0.3 mM KH2PO4, 138 mM NaCl, 4 mM NaHO3, 0.3 mM Na2HCO3, 0.3 mM Na2HPO4, 5.6 mM glucose and 10 mM Hepes, pH 7.4 containing complete protease inhibitor cocktail (1 tablet/10 ml, Roche, Indianapolis, IN)] and phosphatase inhibitor cocktail (Sigma, 1:100). […] The protein concentrations of the supernatants were determined using the Pierce BCA protein assay (Thermo Scientific, Rockford, IL). […]
# [1] = system: superoxide dismutase (SOD1); test: SOD1 expression in CYP-CIPN rat peripheral (sciatic) nerves, Western immunoblotting; assay type: in vivo; conditions: 8-AG 5 mg/kg/day in drinking water from 2 weeks prior to CYP
# Method: as §1, with “In addition, all tissues (dorsal root ganglion, spinal cord, peripheral nerves and hindpaw epidermis) were removed from isoflurane anesthetized rats and the tissue was used for various experimental approaches as described below. At the end of tissue removal, animals were sacrificed by thoracotomy.” left out
# as §2
# [2] = Pharmacokinetics of 8-aminoguanine: plasma disposition; assay type: in vivo; conditions: single bolus 5 mg/kg through the jugular catheter; for half-life: Sprague-Dawley, rat, plasma, intravenous, 5 mg/kg
# Method: as §3
# Purines in urine were measured by mass spectrometry using multiple reaction monitoring. Blood samples were diluted 1 to 30 with water, and heavy isotope internal standards were added to each sample. Purines were separated by reversed-phase ultra-performance liquid chromatography (Waters UPLC BEH C18 column, 1.7 μm beads; 2.1×150 mm; Milford, MA) and quantified by multiple reaction monitoring using a triple quadrupole mass spectrometer (TSQ Quantum-Ultra; ThermoFisher Scientific, San Jose, CA) with a heated electrospray ionization source. The mobile phase was a linear gradient flow rate (300 uL/min) of 1% acetic acid in water (pH, 3; mobile phase A) and 100% methanol (mobile phase B), and was delivered with a Waters Acquity ultra-performance liquid chromatographic system. The gradient (A/B) settings were: from 0 to 2 minutes, 99.6%/0.4%; from 2 to 3 minutes, to 98.0%/2.0%; from 3 to 4 minutes, to 85.0%/15.0%; from 4 to 6.5 minutes, to 99.6%/0.4%. […]
smiles,measurement,setting,value
"Nc1nc2[nH]c(N)nc2c(=O)[nH]1 [8-AG, 8-Aminoguanine]",effect on CYP-induced gross edema,PGP 9.5,normalized
same,"effect on CYP-induced neural damage (ragged/damaged fine nerve terminals, PGP 9.5 distribution)",PGP 9.5,normalized
same,duration of sustained reduction in the ratio of urine guanosine to urine guanine,PNPase; rat urine,> 6 h
same,duration of sustained reduction in urine levels of hypoxanthine,PNPase; rat urine,> 6 h
same,hypoxanthine levels in the urine,PNPase; rat urine,decrease
same,duration of sustained inhibition of PNPase following a bolus dose,PNPase; rat,> 6 h
same,effect on CYP-induced decrease in MFN2 expression,mitofusin 2 (MFN2),reversed
same,effect on CYP-induced decrease in SOD1 expression,[1],normalized; also recorded: prevented
same,half-life,[2]; read-out: half-life of first phase of decay (distribution from plasma into tissues) (converted),0.38 h
same,half-life,[2]; read-out: half-life of second phase (elimination from the body) (converted),37 h
same,plasma disposition,[2]; rat plasma,bi-exponential decay
